Assays:
[1] = system: MOLT-4, MOLM-16, HAL-01, and HL-60; assay: MTS cell proliferation assay, other AML cell lines together; format: cell-based; conditions: range over MOLT-4, MOLM-16, HAL-01, HL-60; read-out: IC50 across other AML cell lines
Procedure: (§1) The myeloid leukemia cell lines MV-4-11, MOLT-4, MOLM-16, HL-60, and the human B lymphocyte cell line […] were purchased from the American Type Culture Collection (ATCC, Manassas, VA, United States). The myeloid leukemia cell line HAL-01 was obtained from the Deutsche Sammlung von Mikroorganismen und Zellkulturen GmbH (DSMZ, Braunschweig, Germany). All cells were cultured in IMDM or RPMI -1640 medium supplemented with 10% FBS, 100 U/mL penicillin, and 100 μg/mL streptomycin. The cells were maintained in a humidified incubator with an atmosphere of 5% CO2 at 37°C.
The in vitro anti-proliferative activity of the compounds was determined using the CellTiter 96® AQueous NonRadioactive Cell Proliferation Assay Kit (Promega, Madison, United States) as previously described ([Ji et al., 2017]). In brief, 5–10 × 10^3 cells and 180 μL of medium were first seeded into each well of a 96-well plate. […] Finally, the optical density (OD) was then recorded at 490 nm and 690 nm using a microplate reader from Molecular Devices. […] The IC50 values of the compounds inhibiting cell proliferation were calculated using GraphPad Prism 10 (GraphPad Software Inc., San Diego, CA).

[2] = system: HAL-01; assay: MTS cell proliferation assay; format: cell-based; conditions: Homo sapiens, growth inhibition after 72 h
Procedure: as §1
(§2) The in vitro anti-proliferative activity of the compounds was determined using the CellTiter 96® AQueous NonRadioactive Cell Proliferation Assay Kit (Promega, Madison, United States) as previously described ([Ji et al., 2017]). In brief, 5–10 × 10^3 cells and 180 μL of medium were first seeded into each well of a 96-well plate. Subsequently, the cells were exposed to either 0.2% Dimethyl sulfoxide (DMSO, Aladdin Reagent, Shanghai, China) or a serial dilution of the compounds, prepared from a 10 mM stock solution in DMSO, with the final concentration of DMSO being 0.2% for 72 h. 20 μL of MTS reagent was added to each well, and the culture was incubated in the dark at 37°C for 4 h. Finally, the optical density (OD) was then recorded at 490 nm and 690 nm using a microplate reader from Molecular Devices. The proliferation inhibition rate was calculated according to the following formula: inhibition ratio = (OD of DMSO treated wells - OD of compound treated wells)/(OD of DMSO treated wells - OD of blank wells) × 100%. The IC50 values of the compounds inhibiting cell proliferation were calculated using GraphPad Prism 10 (GraphPad Software Inc., San Diego, CA).
(§3) ^aIC50 (μM) is the concentration of compound needed to reduce cell growth by 50% after 72 h treatment with LTM-1.

[3] = system: MOLM-16; assay: MTS cell proliferation assay; format: cell-based; conditions: MOLM16; growth inhibition after 72 h
Procedure: as §1, §2, §3

[4] = system: HL-60; assay: MTS cell proliferation assay; format: cell-based; conditions: Homo sapiens, growth inhibition after 72 h
Procedure: as §1, §2, §3

[5] = system: MOLT-4; assay: MTS cell proliferation assay; format: cell-based; conditions: Homo sapiens, growth inhibition after 72 h
Procedure: as §1, §2, §3

[6] = target: FGFR1 (Homo sapiens, UniProt P11362); assay: SelectScreen kinase profiling; format: biochemical
Procedure: (§4) The kinase selectivity analysis of LTM-1 was performed utilizing the SelectScreen Kinase Profiling Service offered by Thermo Fisher Scientific. In a dose-response assay featuring a ten-point dilution series from 0.25 μM to 128 μM, the inhibitory effects of LTM-1 on substrate phosphorylation reactions catalyzed by a panel of kinases were assessed. Consequently, the half-maximal inhibitory concentrations (IC50 values) for each kinase were determined.

[7] = target: PDGFRA (Homo sapiens, UniProt P16234); assay: SelectScreen kinase profiling; format: biochemical
Procedure: as §4

[8] = target: EPHA1 (Homo sapiens, UniProt P21709); assay: SelectScreen kinase profiling; format: biochemical
Procedure: as §4

[9] = target: ZAK (Homo sapiens, UniProt Q9NYL2); assay: SelectScreen kinase profiling; format: biochemical
Procedure: as §4

[10] = target: BLK (Homo sapiens, UniProt P51451); assay: SelectScreen kinase profiling; format: biochemical
Procedure: as §4

[11] = target: JAK1 (Homo sapiens, UniProt P23458); assay: SelectScreen kinase profiling; format: biochemical
Procedure: as §4

[12] = target: ALK (Homo sapiens, UniProt Q9UM73); assay: SelectScreen kinase profiling; format: biochemical
Procedure: as §4

[13] = target: PDGFRB (Homo sapiens, UniProt P09619); assay: SelectScreen kinase profiling; format: biochemical
Procedure: as §4

[14] = target: EPHB1 (Homo sapiens, UniProt P54762); assay: SelectScreen kinase profiling; format: biochemical
Procedure: as §4

[15] = target: ABL2 (Homo sapiens, UniProt P42684); assay: SelectScreen kinase profiling; format: biochemical
Procedure: as §4

[16] = target: RAF1 (Homo sapiens, UniProt P04049, Y340D/Y341D); assay: SelectScreen kinase profiling; format: biochemical
Procedure: as §4

[17] = target: CDK12 (Homo sapiens, UniProt Q9NYV4); assay: SelectScreen kinase profiling; format: biochemical
Procedure: as §4

[18] = target: CDK8 (Homo sapiens, UniProt P49336); assay: SelectScreen kinase profiling; format: biochemical
Procedure: as §4

[19] = target: BMX (Homo sapiens, UniProt P51813); assay: SelectScreen kinase profiling; format: biochemical
Procedure: as §4

[20] = target: LTK (Homo sapiens, UniProt P29376); assay: SelectScreen kinase profiling; format: biochemical
Procedure: as §4

[21] = target: DDR2 (Homo sapiens, UniProt Q16832); assay: SelectScreen kinase profiling; format: biochemical
Procedure: as §4

[22] = target: FGFR4 (Homo sapiens, UniProt P22455); assay: SelectScreen kinase profiling; format: biochemical
Procedure: as §4

[23] = target: PLK1 (Homo sapiens, UniProt P53350); assay: SelectScreen kinase profiling; format: biochemical
Procedure: as §4

[24] = target: PIM1 (Homo sapiens, UniProt P11309); assay: SelectScreen kinase profiling; format: biochemical
Procedure: as §4

[25] = target: CDK1 (Homo sapiens, UniProt P06493); assay: SelectScreen kinase profiling; format: biochemical
Procedure: as §4

[26] = target: DDR1 (Homo sapiens, UniProt Q08345); assay: SelectScreen kinase profiling; format: biochemical
Procedure: as §4

[27] = target: ITK (Homo sapiens, UniProt Q08881); assay: SelectScreen kinase profiling; format: biochemical
Procedure: as §4

[28] = target: PLK2 (Homo sapiens, UniProt Q9NYY3); assay: SelectScreen kinase profiling; format: biochemical
Procedure: as §4

[29] = target: MET (Homo sapiens, UniProt P08581); assay: SelectScreen kinase profiling; format: biochemical
Procedure: as §4

[30] = target: EPHB2 (Homo sapiens, UniProt P29323); assay: SelectScreen kinase profiling; format: biochemical
Procedure: as §4

Sequence of BLK (P51451 whole entry): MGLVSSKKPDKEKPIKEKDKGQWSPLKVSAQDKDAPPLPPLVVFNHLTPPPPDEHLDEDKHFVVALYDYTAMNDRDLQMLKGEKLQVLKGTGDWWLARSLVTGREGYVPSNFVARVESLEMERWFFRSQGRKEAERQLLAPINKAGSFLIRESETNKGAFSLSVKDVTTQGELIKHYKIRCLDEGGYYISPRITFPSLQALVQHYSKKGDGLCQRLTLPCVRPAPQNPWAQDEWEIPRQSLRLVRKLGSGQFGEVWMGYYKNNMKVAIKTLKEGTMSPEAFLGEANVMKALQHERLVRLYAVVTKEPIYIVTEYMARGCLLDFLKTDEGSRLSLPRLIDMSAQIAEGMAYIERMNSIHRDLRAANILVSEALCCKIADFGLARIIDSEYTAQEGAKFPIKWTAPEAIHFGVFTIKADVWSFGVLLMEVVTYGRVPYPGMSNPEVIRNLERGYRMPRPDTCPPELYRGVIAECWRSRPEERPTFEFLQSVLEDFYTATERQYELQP
Sequence of JAK1 (P23458 whole entry): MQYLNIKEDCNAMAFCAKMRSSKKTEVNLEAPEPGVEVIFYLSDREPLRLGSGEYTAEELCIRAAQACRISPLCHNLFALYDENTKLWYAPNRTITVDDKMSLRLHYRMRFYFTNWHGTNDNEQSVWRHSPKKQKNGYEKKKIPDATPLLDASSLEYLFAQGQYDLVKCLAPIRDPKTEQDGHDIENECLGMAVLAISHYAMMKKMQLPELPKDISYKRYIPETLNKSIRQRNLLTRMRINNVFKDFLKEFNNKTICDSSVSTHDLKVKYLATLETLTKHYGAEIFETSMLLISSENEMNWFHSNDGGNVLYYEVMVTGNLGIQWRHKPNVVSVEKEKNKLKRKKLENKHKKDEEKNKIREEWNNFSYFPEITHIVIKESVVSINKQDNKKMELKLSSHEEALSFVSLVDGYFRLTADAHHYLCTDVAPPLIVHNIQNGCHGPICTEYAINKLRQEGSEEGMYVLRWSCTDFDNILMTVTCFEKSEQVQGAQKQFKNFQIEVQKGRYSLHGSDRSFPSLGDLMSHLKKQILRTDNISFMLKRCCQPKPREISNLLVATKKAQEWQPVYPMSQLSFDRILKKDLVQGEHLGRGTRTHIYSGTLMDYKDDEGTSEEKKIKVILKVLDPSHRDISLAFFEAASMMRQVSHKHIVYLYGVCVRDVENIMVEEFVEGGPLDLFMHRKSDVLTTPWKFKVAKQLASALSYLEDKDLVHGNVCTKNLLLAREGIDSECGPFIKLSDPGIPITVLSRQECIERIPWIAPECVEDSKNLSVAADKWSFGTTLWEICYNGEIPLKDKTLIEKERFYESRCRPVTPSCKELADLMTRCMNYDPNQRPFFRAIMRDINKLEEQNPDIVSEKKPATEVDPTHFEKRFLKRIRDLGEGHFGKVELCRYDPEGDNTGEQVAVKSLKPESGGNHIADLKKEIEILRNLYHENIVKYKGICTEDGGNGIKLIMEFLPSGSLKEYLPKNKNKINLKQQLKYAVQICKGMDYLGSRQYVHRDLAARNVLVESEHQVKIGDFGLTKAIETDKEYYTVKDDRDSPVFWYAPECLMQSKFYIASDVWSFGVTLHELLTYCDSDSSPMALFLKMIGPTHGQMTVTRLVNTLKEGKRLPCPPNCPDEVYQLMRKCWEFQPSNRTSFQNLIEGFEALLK
Sequence of ZAK (Q9NYL2 whole entry): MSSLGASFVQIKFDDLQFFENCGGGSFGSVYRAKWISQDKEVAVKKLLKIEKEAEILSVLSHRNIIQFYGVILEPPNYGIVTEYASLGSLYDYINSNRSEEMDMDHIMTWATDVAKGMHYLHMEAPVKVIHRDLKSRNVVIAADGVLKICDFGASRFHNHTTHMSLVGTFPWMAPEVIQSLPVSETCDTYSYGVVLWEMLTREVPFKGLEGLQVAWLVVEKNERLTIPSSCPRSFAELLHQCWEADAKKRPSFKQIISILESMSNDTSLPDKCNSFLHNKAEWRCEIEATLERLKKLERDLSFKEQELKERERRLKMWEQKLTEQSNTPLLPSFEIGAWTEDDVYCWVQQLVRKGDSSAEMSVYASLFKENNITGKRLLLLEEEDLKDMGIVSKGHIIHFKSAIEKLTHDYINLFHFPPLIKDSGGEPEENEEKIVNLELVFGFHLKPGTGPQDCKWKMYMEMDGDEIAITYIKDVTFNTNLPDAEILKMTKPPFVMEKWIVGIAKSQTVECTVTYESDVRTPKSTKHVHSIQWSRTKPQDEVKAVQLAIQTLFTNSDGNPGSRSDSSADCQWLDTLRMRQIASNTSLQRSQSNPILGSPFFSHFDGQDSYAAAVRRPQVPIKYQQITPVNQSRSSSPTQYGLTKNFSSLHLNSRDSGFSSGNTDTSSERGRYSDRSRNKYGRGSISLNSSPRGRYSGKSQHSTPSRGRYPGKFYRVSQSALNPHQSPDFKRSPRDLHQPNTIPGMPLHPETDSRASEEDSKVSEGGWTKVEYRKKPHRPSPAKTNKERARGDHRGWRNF
Sequence of RAF1 (P04049 306-648 Y340D/Y341D limits assumed): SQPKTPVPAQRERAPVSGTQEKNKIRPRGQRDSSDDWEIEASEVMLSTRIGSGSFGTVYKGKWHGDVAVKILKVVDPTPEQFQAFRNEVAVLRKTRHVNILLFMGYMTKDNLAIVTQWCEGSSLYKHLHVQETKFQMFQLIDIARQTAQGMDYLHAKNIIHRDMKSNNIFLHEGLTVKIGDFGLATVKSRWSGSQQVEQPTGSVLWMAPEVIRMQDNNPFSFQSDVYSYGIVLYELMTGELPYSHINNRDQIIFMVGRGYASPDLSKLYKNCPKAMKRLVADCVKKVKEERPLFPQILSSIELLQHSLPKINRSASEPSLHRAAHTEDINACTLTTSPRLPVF
Sequence of DDR1 (Q08345 19-913): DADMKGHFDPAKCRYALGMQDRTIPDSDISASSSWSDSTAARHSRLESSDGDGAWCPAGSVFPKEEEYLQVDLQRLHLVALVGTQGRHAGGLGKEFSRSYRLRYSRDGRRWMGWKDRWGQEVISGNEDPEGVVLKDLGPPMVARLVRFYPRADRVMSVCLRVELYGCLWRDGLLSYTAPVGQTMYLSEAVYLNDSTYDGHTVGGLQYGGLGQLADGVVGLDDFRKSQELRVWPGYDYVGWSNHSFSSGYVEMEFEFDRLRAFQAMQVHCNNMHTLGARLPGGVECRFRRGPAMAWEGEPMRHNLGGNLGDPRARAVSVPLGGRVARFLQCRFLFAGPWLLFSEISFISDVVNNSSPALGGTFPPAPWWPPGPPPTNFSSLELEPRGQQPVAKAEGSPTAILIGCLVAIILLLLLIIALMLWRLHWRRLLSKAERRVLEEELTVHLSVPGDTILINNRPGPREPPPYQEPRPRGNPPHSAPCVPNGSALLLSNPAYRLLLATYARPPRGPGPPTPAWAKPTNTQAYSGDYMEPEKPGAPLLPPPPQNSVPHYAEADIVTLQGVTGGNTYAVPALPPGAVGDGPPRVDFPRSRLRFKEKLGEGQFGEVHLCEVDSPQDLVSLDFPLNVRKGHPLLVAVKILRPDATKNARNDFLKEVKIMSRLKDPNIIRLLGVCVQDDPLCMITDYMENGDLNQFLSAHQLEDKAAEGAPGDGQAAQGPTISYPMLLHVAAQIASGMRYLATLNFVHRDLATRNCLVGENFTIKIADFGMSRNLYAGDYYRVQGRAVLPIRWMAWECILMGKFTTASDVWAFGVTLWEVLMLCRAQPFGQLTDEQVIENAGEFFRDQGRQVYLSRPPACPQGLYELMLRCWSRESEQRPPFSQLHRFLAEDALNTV
Sequence of ITK (Q08881 whole entry): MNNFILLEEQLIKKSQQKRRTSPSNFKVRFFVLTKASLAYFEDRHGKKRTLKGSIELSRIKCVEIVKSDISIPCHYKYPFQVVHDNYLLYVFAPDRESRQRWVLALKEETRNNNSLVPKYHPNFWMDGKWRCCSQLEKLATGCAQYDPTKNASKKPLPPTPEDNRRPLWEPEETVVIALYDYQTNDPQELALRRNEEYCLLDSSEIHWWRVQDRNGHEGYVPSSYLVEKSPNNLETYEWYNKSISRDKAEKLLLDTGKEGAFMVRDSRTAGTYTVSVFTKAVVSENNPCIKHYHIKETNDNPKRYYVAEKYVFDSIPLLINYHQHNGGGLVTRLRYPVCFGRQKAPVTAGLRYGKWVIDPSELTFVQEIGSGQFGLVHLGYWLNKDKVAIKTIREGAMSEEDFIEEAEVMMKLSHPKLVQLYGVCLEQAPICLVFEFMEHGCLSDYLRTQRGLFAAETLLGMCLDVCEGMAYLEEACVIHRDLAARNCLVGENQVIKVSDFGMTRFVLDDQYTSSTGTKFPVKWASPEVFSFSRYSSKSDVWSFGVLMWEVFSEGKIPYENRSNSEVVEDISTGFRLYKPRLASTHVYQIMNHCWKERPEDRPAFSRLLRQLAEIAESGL
Sequence of CDK1 (P06493 whole entry): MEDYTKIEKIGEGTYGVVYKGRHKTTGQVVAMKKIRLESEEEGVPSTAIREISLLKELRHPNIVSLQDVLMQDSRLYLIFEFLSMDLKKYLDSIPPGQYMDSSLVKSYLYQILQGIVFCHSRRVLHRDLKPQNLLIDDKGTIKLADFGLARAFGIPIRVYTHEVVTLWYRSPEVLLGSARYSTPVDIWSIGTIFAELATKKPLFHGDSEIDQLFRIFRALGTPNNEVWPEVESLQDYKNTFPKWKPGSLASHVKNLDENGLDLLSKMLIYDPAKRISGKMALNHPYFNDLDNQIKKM
Sequence of CDK1 (P14635 whole entry partner): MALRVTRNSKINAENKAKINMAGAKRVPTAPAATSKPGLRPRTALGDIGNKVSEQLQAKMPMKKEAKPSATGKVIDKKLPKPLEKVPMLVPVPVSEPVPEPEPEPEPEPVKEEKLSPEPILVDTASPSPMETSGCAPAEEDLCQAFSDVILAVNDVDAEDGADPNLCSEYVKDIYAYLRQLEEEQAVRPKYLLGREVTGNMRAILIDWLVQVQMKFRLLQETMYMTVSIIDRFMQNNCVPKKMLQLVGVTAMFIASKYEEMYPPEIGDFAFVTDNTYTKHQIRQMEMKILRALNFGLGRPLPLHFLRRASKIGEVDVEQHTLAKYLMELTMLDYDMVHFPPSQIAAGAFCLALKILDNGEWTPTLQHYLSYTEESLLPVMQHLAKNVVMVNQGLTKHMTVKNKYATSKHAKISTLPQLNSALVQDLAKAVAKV

O=S(=O)(c1ccc(C(O)CO)c(C(F)(F)F)c1)N1CCc2cc(C3CC3NCC3CCNCC3)ccc21 (stereo not drawn) [LTM-1]
IC50 [1]: 190 to 390 nM | IC50 [2]: 0.25 ± 0.01 µM | IC50 [3]: 0.27 ± 0.02 µM | IC50 [4]: 0.39 ± 0.03 µM | IC50 [5]: 0.19 ± 0.01 µM | IC50 [6]: > 10 µM | IC50 [7]: > 10 µM | IC50 [8]: > 10 µM | IC50 [9]: > 10 µM | IC50 [10]: > 10 µM | IC50 [11]: > 10 µM | IC50 [12]: > 10 µM | IC50 [13]: > 10 µM | IC50 [14]: > 10 µM | IC50 [15]: > 10 µM | IC50 [16]: > 10 µM | IC50 [17]: > 10 µM | IC50 [18]: > 10 µM | IC50 [19]: > 10 µM | IC50 [20]: > 10 µM | IC50 [21]: > 10 µM | IC50 [22]: > 10 µM | IC50 [23]: > 10 µM | IC50 [24]: > 10 µM | IC50 [25]: > 10 µM | IC50 [26]: > 10 µM | IC50 [27]: > 10 µM | IC50 [28]: > 10 µM | IC50 [29]: > 10 µM | IC50 [30]: > 10 µM

Source: article PMC11903733 (Frontiers in Pharmacology, 2025)
